Measured values taken from patent US10590123B2, “Pesticidally active amide heterocyclic derivatives with sulphur containing substituents” (SYNGENTA PARTICIPATIONS AG, priority 2014, dated 2020).

Key:
Format in all cases: in vivo
[1] = system: Spodoptera littoralis (Egyptian Cotton Leaf Worm); assay: Example B2: Activity against Spodoptera littoralis, systemic via lettuce roots in agar; details: 144 h, application rate 12.5 ppm, 6 days after infestation, read-out: control in at least one of the three categories (mortality, anti-feedancy or growth inhibition)
Excerpt: Example B2: Activity Against Spodoptera littoralis (Egyptian Cotton Leaf Worm)
Test compounds were applied by pipette from 10′000 ppm DMSO stock solutions into 24-well plates and mixed with agar. Lettuce seeds were placed on the agar and the multi well plate was closed by another plate which contains also agar. After 7 days the roots have absorbed the compound and the lettuce has grown into the lid plate. The lettuce leafs were now cut off into the lid plate. Spodoptera eggs were pipetted through a plastic stencil on a humid gel blotting paper and the plate closed with it.
The samples were assessed for mortality, anti-feedant effect and growth inhibition in comparison to untreated samples 6 days after infestation.

[2] = system: Myzus persicae (Green Peach Aphid); assay: Example B8: Activity against Myzus persicae, sprayed sunflower leaf discs; details: foliar, 144 h, application rate 200 ppm, aphid population of mixed ages, 6 days after infestation
Experimental: Example B8: Activity Against Myzus persicae (Green Peach Aphid)
Sunflower leaf discs were placed on agar in a 24-well microtiter plate and sprayed with aqueous test solutions prepared from 10′000 ppm DMSO stock solutions. After drying, the leaf discs were infested with an aphid population of mixed ages. The samples were assessed for mortality 6 days after infestation.

[3] = system: Diabrotica Balteata (Corn Root Worm); assay: Example B4: Activity against Diabrotica balteata, sprayed maize sprouts; details: 96 h, application rate 200 ppm, L2 larvae, 4 days after infestation, read-out: effect in at least one of the two categories (mortality or growth inhibition)
Experimental: Example B4: Activity Against Diabrotica Balteata (Corn Root Worm)
Maize sprouts, placed on an agar layer in 24-well microtiter plates were treated with aqueous test solutions prepared from 10′000 ppm DMSO stock solutions by spraying. After drying, the plates were infested with L2 larvae (6 to 10 per well). The samples were assessed for mortality and growth inhibition in comparison to untreated samples 4 days after infestation.

[4] = system: Plutella xylostella (Diamond Back Moth); assay: Example B3: Activity against Plutella xylostella, artificial diet; details: 120 h, application rate 200 ppm, L2 larvae, 5 days after infestation, read-out: effect in at least one of the two categories (mortality or growth inhibition)
Experimental: Example B3: Activity Against Plutella xylostella (Diamond Back Moth)
24-well microtiter plates with artificial diet were treated with aqueous test solutions prepared from 10′000 ppm DMSO stock solutions by pipetting. After drying, the plates were infested with L2 larvae (10 to 15 per well). The samples were assessed for mortality and growth inhibition in comparison to untreated samples 5 days after infestation.

[5] = system: Euschistus heros (Neotropical Brown Stink Bug); assay: Example B7: Activity against Euschistus heros, sprayed soybean leaf; details: 120 h, application rate 200 ppm, N-2 nymphs, 5 days after infestation
Experimental: Example B7: Activity Against Euschistus heros (Neotropical Brown Stink Bug)
Soybean leaf on agar in 24-well microtiter plates were sprayed with aqueous test solutions prepared from 10′000 ppm DMSO stock solutions. After drying the leaf were infested with N-2 nymphs. The samples were assessed for mortality 5 days after infestation.

[6] = system: Spodoptera littoralis (Egyptian Cotton Leaf Worm); assay: Example B1: Activity against Spodoptera littoralis, sprayed cotton leaf discs; details: foliar, 72 h, application rate 200 ppm, L1 larvae, 3 days after infestation, read-out: control in at least one of the three categories (mortality, anti-feedancy or growth inhibition)
Experimental: Example B1: Activity Against Spodoptera littoralis (Egyptian Cotton Leaf Worm)
Cotton leaf discs were placed on agar in 24-well microtiter plates and sprayed with aqueous test solutions prepared from 10′000 ppm DMSO stock solutions. After drying the leaf discs were infested with five L1 larvae. The samples were assessed for mortality, anti-feedant effect, and growth inhibition in comparison to untreated samples 3 days after infestation. Control of Spodoptera littoralis by a test sample is when at least one of mortality, anti-feedant effect, and growth inhibition is higher than the untreated sample.

CCSc1cc(-n2ccc(C(F)(F)F)n2)cnc1C(=O)Nc1nnc(C(F)(F)C(F)(F)F)s1 [Compound P6]
≥ 80%: percent control (mortality, anti-feedant effect or growth inhibition) at 12.5 ppm [1]

CCS(=O)(=O)c1cc(-c2cccc(F)c2)cnc1C(=O)N(C)c1nnc(C(F)(F)F)s1 [Compound P26]
≥ 80%: mortality at 200 ppm [2] | percent effect (mortality or growth inhibition) at 200 ppm [3] | percent effect (mortality or growth inhibition) at 200 ppm [4] | mortality at 200 ppm [5] | percent control (mortality, anti-feedant effect or growth inhibition) at 200 ppm [6] | percent control (mortality, anti-feedant effect or growth inhibition) at 12.5 ppm [1]

CCS(=O)(=O)c1cc(-c2cccc3c2OC(F)(F)O3)cnc1C(=O)N(C)c1nnc(C(F)(F)F)s1 [Compound P29]
≥ 80%: mortality at 200 ppm [2] | percent effect (mortality or growth inhibition) at 200 ppm [3] | percent effect (mortality or growth inhibition) at 200 ppm [4] | mortality at 200 ppm [5] | percent control (mortality, anti-feedant effect or growth inhibition) at 200 ppm [6] | percent control (mortality, anti-feedant effect or growth inhibition) at 12.5 ppm [1]

CCS(=O)(=O)c1cc(-c2cccc(OC(F)(F)F)c2)cnc1C(=O)N(C)c1nnc(C(F)(F)F)s1 [Compound P31]
≥ 80%: percent effect (mortality or growth inhibition) at 200 ppm [3] | percent effect (mortality or growth inhibition) at 200 ppm [4] | mortality at 200 ppm [5] | percent control (mortality, anti-feedant effect or growth inhibition) at 200 ppm [6] | percent control (mortality, anti-feedant effect or growth inhibition) at 12.5 ppm [1]

CCS(=O)(=O)c1cc(-c2cncs2)cnc1C(=O)N(C)c1nnc(C(F)(F)F)s1 [Compound P40]
≥ 80%: mortality at 200 ppm [2] | percent effect (mortality or growth inhibition) at 200 ppm [3] | percent effect (mortality or growth inhibition) at 200 ppm [4] | mortality at 200 ppm [5] | percent control (mortality, anti-feedant effect or growth inhibition) at 200 ppm [6]

CCS(=O)(=O)c1cc(-c2cc(Cl)ccn2)cnc1C(=O)N(C)c1nnc(C(F)(F)F)s1 [Compound P42]
≥ 80%: mortality at 200 ppm [2] | percent effect (mortality or growth inhibition) at 200 ppm [3] | percent effect (mortality or growth inhibition) at 200 ppm [4] | mortality at 200 ppm [5] | percent control (mortality, anti-feedant effect or growth inhibition) at 200 ppm [6] | percent control (mortality, anti-feedant effect or growth inhibition) at 12.5 ppm [1]

CCS(=O)(=O)c1cc(-c2ncc(C(F)(F)F)cc2F)cnc1C(=O)N(C)c1nnc(C(F)(F)F)s1 [Compound P48]
≥ 80%: percent effect (mortality or growth inhibition) at 200 ppm [3] | percent effect (mortality or growth inhibition) at 200 ppm [4] | mortality at 200 ppm [5] | percent control (mortality, anti-feedant effect or growth inhibition) at 200 ppm [6] | percent control (mortality, anti-feedant effect or growth inhibition) at 12.5 ppm [1]

CCS(=O)(=O)c1cc(-c2ccnc(Cl)c2)cnc1C(=O)N(C)c1nnc(C(F)(F)F)s1 [Compound P57]
≥ 80%: mortality at 200 ppm [2] | percent effect (mortality or growth inhibition) at 200 ppm [3] | percent effect (mortality or growth inhibition) at 200 ppm [4] | mortality at 200 ppm [5] | percent control (mortality, anti-feedant effect or growth inhibition) at 200 ppm [6]

CCS(=O)(=O)c1cc(-c2ccnc(C(F)(F)F)n2)cnc1C(=O)N(C)c1nnc(C(F)(F)F)s1 [Compound P60]
≥ 80%: mortality at 200 ppm [2] | percent effect (mortality or growth inhibition) at 200 ppm [3] | percent effect (mortality or growth inhibition) at 200 ppm [4] | mortality at 200 ppm [5] | percent control (mortality, anti-feedant effect or growth inhibition) at 200 ppm [6]

CCS(=O)(=O)c1cc(-c2ncc(Cl)cn2)cnc1C(=O)N(C)c1nnc(C(F)(F)F)s1 [Compound P62]
≥ 80%: mortality at 200 ppm [2] | percent effect (mortality or growth inhibition) at 200 ppm [3] | percent effect (mortality or growth inhibition) at 200 ppm [4] | mortality at 200 ppm [5] | percent control (mortality, anti-feedant effect or growth inhibition) at 200 ppm [6]

CCS(=O)(=O)c1cc(-c2ccc(C#N)cn2)cnc1C(=O)N(C)c1nnc(C(F)(F)F)s1 [Compound P64, 5-(5-cyano-2-pyridyl)-3-ethylsulfonyl-N-methyl-N-[5-(trifluoromethyl)-1,3,4-thiadiazol-2-yl]pyridine-2-carboxamide]
≥ 80%: mortality at 200 ppm [2] | percent effect (mortality or growth inhibition) at 200 ppm [3] | percent effect (mortality or growth inhibition) at 200 ppm [4] | mortality at 200 ppm [5] | percent control (mortality, anti-feedant effect or growth inhibition) at 200 ppm [6]
